Key:
[1] = test system: phosphorylated ERK1/2 (P-ERK1/2); assay: Western Blotting of phosphorylated ERK1/2 in K562 cells; format: cell-based, human; conditions: leukemia cells K562, 10 μmol/L, 24 hours
Description: (§1) The inhibition of the STAT3 and ERK signal pathways achieved by Mogroside I E1, Mogroside II A2 and mogrol was detected by Western Blotting, specifically:
(§2) Group 3: leukemia cells K562 (1×10^6 cells/well) were inoculated into a 6-well culture plate for staying overnight, and 0 and 10 μmol/L of Mogroside I E1 Mogroside II A2 and mogrol were added respectively, and the culture was continued for 24 hours;
(§3) After the termination of the cell culture, the culture solution was removed, and the residue was washed with PBS (0.01 mol/L, pH 7.4), and then a cell lysis solution containing protease inhibitors was added at an amount of 50 μl/well, and the mixture was placed in an ice bath for lysis at 4° C. for 30 min and then centrifuged at 14000 r/min for 10 min, and then total proteins were obtained from the supernatant;
(§4) The protein concentrations were measured with bovine serum albumin (BSA) as the standard. 50 μg of the total proteins was separated by polyacrylamide gel electrophoresis with 12% […], electrophoretically transferred to a PVDF membrane (polyvinylidene fluoride membrane), and blocked for 1 h by 5% of skim milk (containing 0.1% of Tween 20), and then antibodies p-STAT3 (Tyr705) and p-Erk1/2 as well as β-actin were added, and the primary antibody was incubated at 4° C. overnight (β-actin was used as reference in loading amount); the membrane was washed for 3 times with TBS-T, 5 min each time; secondary antibody marked by horseradish peroxidase (HRP) was added for incubation at room temperature for 1 h, the membrane was washed for 3 times with a wash solution (TBS-T), 10 min each time, and then ECL was added for incubation in dark for 5 min, and subsequently, a fluorescence imaging analyzer was used for image development and scanning analysis, and the results of Western Blotting detection are shown in FIGS. 4 to 6.

leukemia cells K562 = assay: MTT colorimetric experiment, cell growth inhibition; format: cell-based, human; conditions: leukemia cells K562, 0.1, 1, 10, 100, 200 and 250 μmol/L, MTT after 24 h
Description: (§5) MTT colorimetric experiments were performed after 24 h, respectively: prior to the finish of each experiment, 15 μl of MTT solution in a concentration of 5 mg/ml was added to each well, and the culture was continued in dark at 37° C. for 4 h, then 150 μl of DMSO was added to each well and oscillating in a shaker for 10 min, and then the residue was placed in a microplate reader to detect the optical density OD) at 490 nm, and the inhibition rate was calculated according to the following formula: cell growth inhibition rate (control group OD490—test group OD490)/control group OD490×100%.

[2] = test system: phosphorylated ERK1/2 (P-ERK1/2); assay: Western Blotting of phosphorylated ERK1/2 in A875 cells; format: cell-based, human; conditions: melanoma A875 cells, 10 μmol/L, 24 hours
Description: as §1
(§6) Group 2: human melanoma A875 cells (1×10^6 cells/well) were inoculated into a 6-well culture plate for staying overnight, and 0 and 10 μmol/L of Mogroside I E1, Mogroside II A2 and mogrol were added respectively, and the culture was continued for 24 hours;
as §3, §4

[3] = test system: phosphorylated STAT3 (P-STAT3, Tyr705); assay: Western Blotting of phosphorylated STAT3 in A875 cells; format: cell-based, human; conditions: melanoma A875 cells, 10 μmol/L, 24 hours
Description: as §1, §6, §3, §4

[4] = test system: phosphorylated ERK1/2 (P-ERK1/2); assay: Western Blotting of phosphorylated ERK1/2 in U937 cells; format: cell-based; conditions: 10 μmol/L, 24 hours
Description: as §1
(§7) Group 1: histiocytic lymphoma U937 cells (1×10^6 cells/well) were inoculated into a 6-well culture plate for staying overnight, and 0 and 10 μmol/L of Mogroside I E1, Mogroside II A2 and mogrol were added respectively, and the culture was continued for 24 hours;
as §3, §4

[5] = test system: phosphorylated STAT3 (P-STAT3, Tyr705); assay: Western Blotting of phosphorylated STAT3 in K562 cells; format: cell-based, human; conditions: leukemia cells K562, 10 μmol/L, 24 hours
Description: as §1, §2, §3, §4

[6] = test system: phosphorylated STAT3 (P-STAT3, Tyr705); assay: Western Blotting of phosphorylated STAT3 in U937 cells; format: cell-based; conditions: 10 μmol/L, 24 hours
Description: as §1, §7, §3, §4

lymphoma U937 cells = assay: MTT colorimetric experiment, cell growth inhibition; format: cell-based; conditions: U937 cells, 0.1, 1, 10, 100, 200 and 250 μmol/L, MTT after 24 h
Description: as §5

[7] = test system: human melanoma A875 cells; assay: as above; format: cell-based; conditions: melanoma A875 cells, 0.1, 1, 10, 100, 200 and 250 μmol/L, MTT after 24 h
Description: as §5

Row | SMILES | expression level of phosphorylated ERK1/2 (P-ERK1/2) [1] | cell growth inhibition rate (leukemia cells K562) | expression level of phosphorylated ERK1/2 (P-ERK1/2) [2] | expression level of phosphorylated STAT3 (P-STAT3) [3] | expression level of phosphorylated ERK1/2 (P-ERK1/2) [4] | expression level of phosphorylated STAT3 (P-STAT3) [5] | expression level of phosphorylated STAT3 (P-STAT3) [6] | cell growth inhibition rate (lymphoma U937 cells) | cell growth inhibition rate [7]
1 | C[C@H](CC[C@@H](O)C(C)(C)O)[C@H]1CC[C@@]2(C)[C@@H]3CC=C4[C@@H](CC[C@H](O[C@@H]5O[C@H](CO)[C@@H](O)[C@H](O)[C@H]5O)C4(C)C)[C@]3(C)[C@H](O)C[C@]12C [Mogroside I E1] | significantly decreased | inhibitory effect on the proliferation | significantly decreased | significantly decreased | significantly decreased | significantly decreased | significantly decreased | inhibitory effect on the proliferation | inhibitory effect on the proliferation
2 | C[C@H](CC[C@@H](O)C(C)(C)O)[C@H]1CC[C@@]2(C)[C@@H]3CC=C4[C@@H](CC[C@H](O[C@@H]5O[C@H](CO[C@@H]6O[C@H](CO)[C@@H](O)[C@H](O)[C@H]6O)[C@@H](O)[C@H](O)[C@H]5O)C4(C)C)[C@]3(C)[C@H](O)C[C@]12C [Mogroside II A2] | significantly decreased | inhibitory effect on the proliferation | significantly decreased | significantly decreased | significantly decreased | significantly decreased | significantly decreased | inhibitory effect on the proliferation | inhibitory effect on the proliferation

Reference: US10617734B2, “STAT3 and ERK signal pathway inhibitor comprising mogrosides and analogs thereof” (BEIJING UNIVERSITY OF AGRICULTURE, priority 2014, dated 2020)
